# Assays:
# [1] = tested on: IRE1α/XBP-1 pathway (XBP1-luciferase reporter); test: High throughput XBP-luciferase reporter screen, tunicamycin/thapsigargin induced (HTS and IRE IC50); type: cell-based, human
# Experimental: Specifically, HT1080 fibrosarcoma cells stably transfected with the unspliced XBP-1-luciferase reporter construct (3000/well) were plated onto a solid white 384 well microplate with a multidrop dispenser (40 μL per well). The plates were then placed into an automated incubator. After 24 hours of growth, a mixture of tunicamycin (1 μg/ml) and thapsigargin (100 nM) inducers were added, and candidate compounds were then added to the plates. After 24 hours, luciferase reagent (10 μl) was added to each well and the plates were read in a Molecular Devices Analyst GT (0.2 second read per well).
# As described above in Example 2, HT1080 fibrosarcoma cells stably expressing the XBP-luciferase reporter were plated in a 384 well microplate (4000 cells/well). After 24 hours, cells were treated with a mixture of tunicamycin (4 μg/ml) and thapsigargin (0.4 μM), followed by the addition of one compound per well (10 μM). We screened a total of 66,000 diverse molecules obtained from Specs, Chembridge and ChemRX. Twenty-four hours post-induction, BriteGlo luciferase substrate (10 μl) was added to each well and the signal intensity determined in a plate reader (0.2 s read per well). […] We retested 431 compounds from the initial screen, and selected 58 compounds for additional analysis, including calculation of IC50 values and inhibition of a CMV-luciferase reporter.
# A. XBP-luciferase reporter construct. Firefly luciferase was inserted downstream of the IRE1α splice site in human XBP-1 to enable the conditional translation of luciferase under ER stress in an IRE1α-dependent manner. B. Selective inhibition of the XBP-luciferase reporter by irestatin 9389. HT1080 human fibrosarcoma cells stably expressing the XBP-luciferase reporter or CMV-luciferase were cultured in the presence of Tm (4 μg/ml) and Tg (0.4 μM) and irestatin 9389 at the indicated concentrations. After 24 hours, luciferase activity was analyzed in an automated plate reader. For each cell line, values are expressed as the percent inhibition of the median for Tm/Tg-treated wells, corrected for background. C. Structure of irestatin 9389. D. XBP-luciferase reporter assay. HT1080 cells stably expressing the XBP-luciferase reporter were exposed to Tm (4 μg/ml) for 24 hours or hypoxia (0.1% oxygen) for 24 or 48 hours, in the presence of DMSO or irestatin 9389 (1 μM) as indicated. Values are expressed as the fold increases over uninduced levels. E. 5X-UPRE reporter assay. HT1080 cells were co-transfected with 5X-UPRE luciferase and SV40-beta-gal reporter plasmids, followed by exposure to Tm or hypoxia as in D. For each condition, luciferase activity is normalized to beta-galactosidase expression levels as an internal control for transfection efficiency. F. Western immunoblot analysis of XBP-1s. HT1080 cells were left untreated (lane 2) or exposed to Tm (4 μg/ml) for 20 hours in the presence of DMSO vehicle (lane 1) or the indicated irestatins (2 μM; lanes 3-6). Cell lysates were resolved by SDS-PAGE and immunoblotting using antisera specific for XBP-1s (top panel) or actin and GAPDH (bottom panel) as loading controls. […] HT1080 cells were treated with DMSO or exposed to irestatin 9389 (2 μM; lane 3) in normoxia (N) or under hypoxia for 24 hours (H 24; lanes 2,3). Cells were harvested, lysed, and analyzed by immunoblotting with antisera specific for HIF-1α (top), XBP-1s (middle) or actin (bottom). H. Northern blot analysis of XBP-1s transcription targets. Cells were exposed to Tm (4 μg/ml) or hypoxia for 24 hours (H 24) in the absence or presence of irestatin 9389 (2 μM). Total RNA was analyzed by Northern blotting using radiolabeled probes specific for P58^IPK or DER-1. Total rRNA is shown as loading control.
# As described above, a HT1080 fibrosarcoma cell line stably expressing a fusion of unprocessed XBP-1 inserted upstream of firefly luciferase has been developed to identify small molecule inhibitors of the IRE1α/XBP-1 signaling module. […]
# XBP-luciferase reporter = XBP-luciferase reporter assay under Tm or hypoxia; type: cell-based, human
# Experimental: HT1080 cells stably expressing the XBP-luciferase construct were grown in 60 mm dishes to 60-70% confluency. Following hypoxia treatment, cells were washed twice with PBS, lysed in 400 μl 1× reporter lysis buffer (RLB) (Promega, Madison Wis.) for 30 min at 24° C. Lysates (100 μl) were mixed with an equal volume of luciferase substrate (Promega), and assayed using a luminometer. For 5×-UPRE-luciferase reporter assays, cells were co-transfected with the appropriate reporter plasmid and a control plasmid (pSV40-beta-gal) using Lipofectamine 2000 (Invitrogen, San Diego, Calif.). Twenty-four hours after transfection, fresh media was added, and cells were treated with Tm or shifted to hypoxia. After treatment, cells were lysed in 1× RLB and analyzed for luciferase activity as described above. Beta-galactosidase activity was determined using the beta-galactosidase enzyme assay system (Promega).
# A. XBP-luciferase reporter construct. […] After 24 hours, luciferase activity was analyzed in an automated plate reader. For each cell line, values are expressed as the percent inhibition of the median for Tm/Tg-treated wells, corrected for background. […] Values are expressed as the fold increases over uninduced levels. […] Cells were harvested, lysed, and analyzed by immunoblotting with antisera specific for HIF-1α (top), XBP-1s (middle) or actin (bottom). […]
smiles,measurement,setting,value
Cc1csc(NC(=O)CSc2nc3c(c(C(F)(F)F)c2C#N)CCC3)n1 [Compound 9389],inhibition of IRE1α / IRE1α/XBP-1 signaling module in screen,"[1]; HT1080 XBP-luciferase, Tm/Tg",potent and specific inhibition of IRE1α
same,inhibition at 10 µM,"[1]; Homo sapiens, 24 h, inhibition of XBP1-luciferase reporter, read-out: Activity Class",75 to 100%
same,IC50,"[1]; Homo sapiens, HT-1080, 24 h, HT1080, Tm 4 μg/ml and Tg 0.4 μM, 24 hours, read-out: mean inhibitory concentration (IC50) of XBP-luciferase activity",~25 nM
same,inhibition at 20 µM,"[1]; Homo sapiens, IRE IC50 assay, Conc 20 uM",87.1%
same,activation of the XBP-luciferase reporter under hypoxia,"XBP-luciferase reporter; 1 μM, hypoxia 24 or 48 hours",robustly inhibited this response
same,inhibition at 1 µM,"XBP-luciferase reporter; Homo sapiens, Tm 24 hours, read-out: inhibition of Tm-mediated activation of the XBP-luciferase reporter",> 90%
